The source made the active and inactive calls.
What was measured:
[1] = reduction of Shn3 3'UTR-driven luciferase in osteoblasts – cell-based, Clone20 osteoblasts, firefly luciferase, cherry-picked, dose response (AID 624132); format: functional;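 further: firefly luciferase luminescence from reporter carrying the Shn3 3'UTR in osteoblasts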
[2] = Shn3 3'UTR reporter signal decrease – cell-based, Clone20 osteoblasts, firefly luciferase, cherry-pick, set 2, Schnurri-3 inhibitor project, dose response (AID 720490); format: functional;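 further: actives lower the luminescence signal as inhibitors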
[3] = microbe, parasite or virus in culture; format: functional; details: Mycobacterium tuberculosis
[4] = target: T1, Heat shock factor protein 1 (Mus musculus, UniProt P38532); experiment: enhancement of HSF1-driven luciferase signal – cell-based, NIH3T3, luminescence, dose retest, confirmation (AID 435004); format: functional;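 further: stress induced by proteasome inhibitor MG132 added 30 min after compound; luciferase reporter driven by HSF1 response element in NIH3T3 cells; actives raise luminescence as potentiators of the MG132 stress response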
T1 sequence (P38532 whole entry): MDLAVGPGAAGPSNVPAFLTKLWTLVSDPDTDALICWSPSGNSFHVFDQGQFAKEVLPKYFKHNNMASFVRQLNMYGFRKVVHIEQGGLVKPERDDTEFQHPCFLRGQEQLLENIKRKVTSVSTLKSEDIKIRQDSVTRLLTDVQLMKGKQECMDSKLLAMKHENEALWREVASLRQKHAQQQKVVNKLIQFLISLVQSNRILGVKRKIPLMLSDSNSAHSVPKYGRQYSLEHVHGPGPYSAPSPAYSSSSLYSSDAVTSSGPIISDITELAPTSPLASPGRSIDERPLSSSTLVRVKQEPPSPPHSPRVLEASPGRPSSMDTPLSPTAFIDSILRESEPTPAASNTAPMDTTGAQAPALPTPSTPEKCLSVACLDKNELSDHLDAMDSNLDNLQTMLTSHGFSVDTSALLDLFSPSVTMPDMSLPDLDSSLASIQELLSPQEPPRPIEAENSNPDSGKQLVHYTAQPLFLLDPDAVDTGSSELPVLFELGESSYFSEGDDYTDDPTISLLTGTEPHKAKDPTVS

[5] = target: Mitogen-activated protein kinase 10 (Homo sapiens, UniProt P53779); experiment: Dose response biochemical screening assay for inhibitors of c-Jun N-Terminal Kinase 3 (JNK3). [Related pubchem assays: 746 ]
[6] = target: Major prion protein (Homo sapiens, UniProt P04156); format: functional, cell-based
[7] = cells
[8] = Counterscreen for […] of the human trace amine associated receptor 1 (TAAR1): Fluorescence-based cell-based high throughput dose response assay to identify nonselective Ga16 agonists.; format: functional
[9] = target: T2, Trace amine-associated receptor 1 (Homo sapiens, UniProt Q96RJ0); experiment: Counterscreen for antagonists of the human trace amine associated receptor 1 (hTAAR1): Fluorescence-based cell-based high throughput dose response assay to identify TAAR1 Agonists.; format: functional
T2 sequence (Q96RJ0 whole entry): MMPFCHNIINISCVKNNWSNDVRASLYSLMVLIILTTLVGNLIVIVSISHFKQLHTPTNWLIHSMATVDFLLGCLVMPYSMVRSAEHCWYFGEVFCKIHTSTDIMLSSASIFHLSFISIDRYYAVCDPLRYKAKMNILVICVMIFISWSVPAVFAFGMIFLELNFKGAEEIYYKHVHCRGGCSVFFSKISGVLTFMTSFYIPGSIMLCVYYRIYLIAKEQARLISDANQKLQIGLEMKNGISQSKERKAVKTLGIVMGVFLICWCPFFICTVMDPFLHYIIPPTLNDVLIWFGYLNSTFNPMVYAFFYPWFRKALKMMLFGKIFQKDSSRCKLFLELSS

[10] = target: T3, Streptokinase A (Streptococcus pyogenes serotype M1, UniProt P10520); experiment: viability-normalized secreted streptokinase activity reduction – plasminogen activation absorbance, OD405, dose response (AID 1914); format: functional, Streptococcus pyogenes M1 GAS;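 further: secreted streptokinase activity via plasminogen activation per viability signal from cell pellet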
T3 sequence (P10520 whole entry): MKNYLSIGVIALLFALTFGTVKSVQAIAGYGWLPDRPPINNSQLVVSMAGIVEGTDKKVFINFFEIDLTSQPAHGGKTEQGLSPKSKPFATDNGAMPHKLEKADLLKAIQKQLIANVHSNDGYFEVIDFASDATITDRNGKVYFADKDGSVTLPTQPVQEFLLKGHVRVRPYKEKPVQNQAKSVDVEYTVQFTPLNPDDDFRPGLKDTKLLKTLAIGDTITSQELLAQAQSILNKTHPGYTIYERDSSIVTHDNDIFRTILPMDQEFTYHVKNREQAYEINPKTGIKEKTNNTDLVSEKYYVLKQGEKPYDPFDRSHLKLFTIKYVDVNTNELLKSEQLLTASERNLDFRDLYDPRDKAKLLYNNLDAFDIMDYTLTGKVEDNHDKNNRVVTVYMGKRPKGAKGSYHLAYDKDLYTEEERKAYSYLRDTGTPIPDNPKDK

[11] = system: Streptococcus sp. 'group A'; experiment: Streptococcus pyogenes SK(-)GAS viability under kanamycin – luminescence, BacTiterGlo, confirmation, counter-screen for streptokinase expression inhibitor project, dose response (AID 1900); format: functional, organism-based
[12] = system: H9c2; experiment: cells; format: functional, cell-based; details: Rattus norvegicus, H9c2, Myocardium;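 further: confirmatory concentration-response retest of ultra-high-throughput screening hits for modulation of myocardial damage; cell death induced by hydrogen peroxide oxidative stress; compound pretreatment for 60 min then peroxide exposure for 2 h; potency is for protecting the cells against peroxide damage rather than for killing them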
[13] = target: T2, Trace amine-associated receptor 1; experiment: Fluorescence-based cell-based high throughput dose response assay to identify antagonists of the human trace amine associated receptor 1 (TAAR1).; format: functional
[14] = system: Streptococcus; experiment: GAS UMAA2166 growth inhibition – luminescence, BacTiterGlo, counter-screen for streptokinase expression inhibitor project, dose response (AID 1915); format: functional, organism-based;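 further: potency for reduction of bacterial viability or growth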
[15] = Counterscreen for antagonists of the human trace amine associated receptor 1 (hTAAR1): Fluorescence-based cell-based high throughput dose response assay to identify nonselective Ga16 antagonists.; format: functional
[16] = Luminescence-based cell-based high throughput dose response assay to identify activators of the DAF-12 from the parasite S. stercoralis (ssDAF-12).; format: functional
[17] = MITF: Counter assay: A375 proliferation Measured in Cell-Based System Using Plate Reader - 2084-03_Inhibitor_Dose_DryPowder_Activity_Set8.; format: functional; details: A-375
[18] = inhibitors of TRPM1-promoter reporter in SK-MEL-5 – cell-based, luciferase, dry powder, set 8, MITF inhibitor project, dose response (AID 624430); format: functional
[19] = MITF Orthogonal Assay: SK-MEL-5 CTG Assay Measured in Cell-Based System Using Plate Reader - 2084-02_Inhibitor_Dose_DryPowder_Activity_Set7.; format: functional
[20] = viability loss in HEK293 kidney cells – cell-based, cherry-picks, set 5, cytotoxicity control, dose response (AID 1053117); format: functional
[21] = viability loss in HepG2 hepatoma cells – cell-based, cherry-picks, set 5, cytotoxicity control, dose response (AID 1053118); format: functional
[22] = viability loss in A549 lung cancer cells – cell-based, cherry-picks, […], cytotoxicity control, dose response (AID 1053119); format: functional
[23] = blockers of FN fibrillogenesis by fibroblasts – AH1F cells, Alexa488-FN fluorescence, cherry-picks, dose response (AID 1035475); format: functional, cell-based
[24] = HEK293 Cytotoxicity Assay Measured in Cell-Based System Using Plate Reader - 7071-01_Inhibitor_Dose_CherryPick_Activity_Set2.; format: functional
[25] = system: HEK293; experiment: viability loss in HEK293T cells – cell-based, ATP luminescence, cherry-pick samples, cytotoxicity control, dose response (AID 687005); format: functional; details: Homo sapiens;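 further: cells exposed to compound for 48 hours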
[26] = PAX8-dependent cell viability loss – plate reader, dry powder, dose response (AID 743049); format: functional, cell-based
[27] = inhibitors acting on PAX2 in cells – cell-based, plate reader, dry powder samples, selectivity assay for PAX8 inhibitor project, dose response (AID 743048); format: functional;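 further: HEK293 cells carrying a WT1 promoter luciferase reporter driven by expressed Pax2; potency is for inhibition of Pax2 driven reporter signal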
[28] = target: Paired box protein Pax-8 (Homo sapiens, UniProt Q06710); experiment: PAX8 transcriptional activity inhibition in RMG-I – RMG-I cells, luciferase, cherry-pick, dose response (AID 687027); format: functional, cell-based;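 further: luciferase reporter driven by Pax8 target thyroperoxidase promoter measured by SteadyGlo luminescence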
[29] = target: Metabotropic glutamate receptor 3 (Rattus norvegicus, UniProt P31422); experiment: inhibitors of rat mGlu3 Galpha15 signaling – TREx293 cells, calcium flux, mGlu3 NAM project, dose response (AID 651840); format: functional
[30] = target: Protein Wnt-3a (Mus musculus, UniProt P27467); experiment: SAR analysis of small molecule antagonists of Gli-SUFU in a Wnt3a luminescent reporter assay.; format: functional
[31] = target: Kappa-type opioid receptor (Homo sapiens, UniProt P41145); experiment: kappa opioid receptor antagonism potency – cell-based, fluorescence, dose response, late-stage follow-up (AID 652032); format: functional
[32] = target: Potassium channel subfamily K member 3 (Homo sapiens, UniProt O14649); experiment: inhibition of human KCNK3 channel flux – CHO cells, FluxOR thallium flux, SAR follow-up (AID 652212); format: functional
[33] = target: Potassium channel subfamily K member 9 (Homo sapiens, UniProt Q9NPC2); experiment: KCNK9 flux blockade, concentration-response – cell-based, FluxOR thallium flux, selectivity assay for TASK1 inhibitor project, SAR follow-up (AID 652211); format: functional;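 further: potency is for inhibitors of the channel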
[34] = liver cell line viability loss – HepG2, luminescence plate reader, powder samples, set 2, cytotoxicity control, dose response (AID 651860); format: functional, cell-based
[35] = target: Endoplasmic reticulum aminopeptidase 1 (Homo sapiens, UniProt Q9NZ08); experiment: inhibition of human ERAP1 enzyme activity – biochemical, cherry-pick, set 2, plate reader, dose response (AID 743314)
[36] = target: Potassium channel subfamily K member 3 (Rattus norvegicus, UniProt O54912); experiment: SAR analysis for the identification of selective inhibitors of the two-pore domain potassium channel TASK1(KCNK3):Automated Electrophysiology.; format: functional
[37] = Late stage assay provider results from the probe development effort to identify selective inhibitors of heat shock protein 90 (HSP90): Absorbance-based cell proliferation assay in MCF7 cells.; format: functional
[38] = Late stage assay provider results from the probe development effort to identify selective inhibitors of heat shock protein 90 (HSP90): Absorbance-based cell proliferation assay in SKBR3 cells.; format: functional; details: SK-BR-3

In the case of `O=C(c1nnc(O)c2ccccc12)N1CCN(C2c3ccccc3-c3ccccc32)CC1`, the AC50 [1] is reported as 7.69 µM (active), the AC50 [2] is reported as 10.7 µM (active) and the CC50 [3] is reported as > 40 µM (active).
For `CCCc1nc(SCC(=O)Nc2cc(C)on2)c2ccccc2n1`, the EC50 [4] was 31.6 µM (active), the IC50 [5] was 83.5 µM (not active) and the IC50 [6] was 1.01 µM (active). For the same molecule, the IC50 [7] was > 138 µM (inactive).
For `COc1cccc(-c2nn(-c3ccccc3)cc2C(=O)Nc2nccs2)c1`, the EC50 [8] was > 29.9 µM (inactive), the EC50 [9] was > 29.9 µM (inactive) and the EC50 [10] was 35.9 µM (active). The EC50 [11] was 14.9 µM (active), the IC50 [12] was 7.3 µM (active) and the IC50 [13] was 4.72 µM (active). For the same molecule, the EC50 [14] was > 150 µM (not active) and the IC50 [15] was > 29.9 µM (inactive).
In the case of `COc1ccc(S(=O)(=O)Cc2ccc(C(=O)NCCCN3CCc4ccccc4C3)o2)cc1`, the IC50 [16] is reported as > 67.5 µM (inactive).
In the case of `CN(C1=CC(=O)c2ccccc2C1=O)c1ccccc1`, the AC50 [17] is reported as > 70 µM (inactive), the AC50 [18] is reported as 16.2 µM (active) and the AC50 [19] is reported as 2.32 µM (active).
With `COc1ccc(S(=O)(=O)N2CCCCC2c2cc(C(=O)Nc3ccc4c(c3)OCO4)no2)cc1` (centres undefined) the AC50 [20] was 11.4 µM (active), the AC50 [21] was 15.4 µM (active) and the AC50 [22] was 23.9 µM (active). The AC50 [23] was 32.6 µM (active).
With `COc1ccc(S(=O)(=O)N[C@@H]2C=C[C@@H](CC(=O)N3CCC(Cc4ccccc4)CC3)O[C@H]2CO)cc1` the AC50 [24] was 19.9 µM (active) and the AC50 [25] was 19.9 µM (active).
For `C[C@H](CO)N1C[C@H](C)[C@@H](CN(C)Cc2ccc(-c3ccccc3)cc2)Oc2ccc(NC(=O)C3CC3)cc2CC1=O`, the AC50 [26] was > 70 µM (inactive), the AC50 [27] was > 70 µM (inactive) and the AC50 [28] was 26.1 µM (active).
For `COc1ccc(C#Cc2ccc(C(=O)N3CC4CCC(O)C4C3)cc2)cc1` (centres undefined), the IC50 [29] was 3.5 µM.
In the case of `COc1cc(OC)cc(C(=O)Nc2cc(Nc3cccc(Cl)c3)ncn2)c1`, the IC50 [30] is reported as > 21.8 µM (inactive).
For `COC(=O)c1cc(Br)cnc1N1CCC(Nc2ccccc2)CC1`, the IC50 [31] was 17.5 µM (inactive).
In the case of `CCOc1ccccc1NC(=O)c1cccc(NC(=O)c2ccccc2C)c1`, the IC50 [32] is reported as 0.14 µM (active) and the IC50 [33] is reported as 4.29 µM (active).
For `O=C(O)[C@H]1CCCC[C@H]1C(=O)N1CCc2ccccc2C1CCN1C(=O)c2ccccc2C1=O` (some centres undefined), the AC50 [34] was > 52 µM (inactive).
With `C[C@H](CO)N1C[C@H](C)[C@H](CN(C)Cc2ccc(C(=O)O)cc2)Oc2ccc(NC(=O)Nc3cccc4ccccc34)cc2CC1=O` the AC50 [35] was 21.1 µM (active).
In the case of `CCOc1ccccc1NC(=O)c1cccc(NC(=O)c2ccc(Cl)cc2)c1`, the IC50 [32] is reported as 0.139 µM (active) and the IC50 [36] is reported as 7.24 µM (active).
For `CC(=O)c1ccc(NC(=O)c2coc(=O)c(Br)c2)cc1`, the IC50 [37] was 10.7 µM (inactive) and the IC50 [38] was 8.4 µM (active).
